For assay [1], the target named is T1, Adenosine receptor A3 (Homo sapiens, UniProt P0DMS8).
T1 sequence (P0DMS8 whole entry): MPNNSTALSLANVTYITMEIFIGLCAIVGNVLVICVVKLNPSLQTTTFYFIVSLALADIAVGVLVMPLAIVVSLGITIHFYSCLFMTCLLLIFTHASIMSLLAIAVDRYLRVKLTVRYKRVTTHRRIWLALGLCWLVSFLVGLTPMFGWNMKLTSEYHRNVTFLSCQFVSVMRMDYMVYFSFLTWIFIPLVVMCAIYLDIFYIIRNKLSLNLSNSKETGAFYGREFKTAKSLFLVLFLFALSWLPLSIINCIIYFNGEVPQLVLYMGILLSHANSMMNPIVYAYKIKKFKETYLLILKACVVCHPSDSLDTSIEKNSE
The assay can be described thus: Binding affinity to human adenosine A3 receptor. The note with it: for Ki: read-out: pKi (converted).

The target in assay [2] is Adenosine receptors; A1 & A3 (Homo sapiens) (UniProt P30542+P0DMS8). In words: Selectivity ratio of Ki for human adenosine A1 receptor to Ki for human adenosine A3 receptor.
For assay [3], the species on record is Homo sapiens. The assay can be described thus: Selectivity ratio of Ki for human adenosine A2A receptor to Ki for human adenosine A3 receptor.
Assay [4] has as its target T2, Adenosine receptor A1 (Homo sapiens, UniProt P30542).
T2 sequence (P30542 whole entry): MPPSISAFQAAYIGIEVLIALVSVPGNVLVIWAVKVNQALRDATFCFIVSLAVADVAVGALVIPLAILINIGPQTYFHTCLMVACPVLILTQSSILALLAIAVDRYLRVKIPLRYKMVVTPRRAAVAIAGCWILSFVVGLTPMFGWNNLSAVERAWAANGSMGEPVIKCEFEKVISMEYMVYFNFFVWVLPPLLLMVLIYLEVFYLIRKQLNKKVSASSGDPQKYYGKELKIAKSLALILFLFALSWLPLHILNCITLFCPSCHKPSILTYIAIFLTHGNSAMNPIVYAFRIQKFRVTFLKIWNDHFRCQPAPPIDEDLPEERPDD
The assay can be described thus: Binding affinity to human adenosine A1 receptor.

The target in assay [5] is Adenosine receptor A2a (Homo sapiens, UniProt P29274). The assay can be described thus: Binding affinity to human adenosine A2A receptor.
Adenosine receptor A2a, sequence (P29274 whole entry): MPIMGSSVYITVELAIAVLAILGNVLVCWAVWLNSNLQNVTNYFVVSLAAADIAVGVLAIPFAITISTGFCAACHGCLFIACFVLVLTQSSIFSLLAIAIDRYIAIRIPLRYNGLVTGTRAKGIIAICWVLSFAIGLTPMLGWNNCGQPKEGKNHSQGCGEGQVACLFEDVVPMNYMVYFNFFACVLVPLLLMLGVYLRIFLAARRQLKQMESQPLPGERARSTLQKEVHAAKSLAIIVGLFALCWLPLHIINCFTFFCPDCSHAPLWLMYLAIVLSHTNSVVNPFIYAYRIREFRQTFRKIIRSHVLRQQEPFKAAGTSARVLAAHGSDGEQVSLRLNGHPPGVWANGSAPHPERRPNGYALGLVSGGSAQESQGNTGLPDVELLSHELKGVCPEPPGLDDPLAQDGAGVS

SMILES strings stand for the structures. pKi: −log10 of the molar value.

The term pKi denotes the negative decadic logarithm of the Ki, by convention in mol/L.

Regarding `CNC(=O)[C@H]1O[C@@H](n2cnc3c(NC)nc(C#Cc4ccc(C(C)=O)cc4)nc32)[C@H](O)[C@@H]1O`, in assay [1], the Ki is 0.331 nM. The Ratio Ki in assay [2] came out at 30900; in assay [3] it was 21300.

Turning to `CNC(=O)[C@H]1O[C@@H](n2cnc3c(NC)nc(C#Cc4ccccc4)nc32)[C@H](O)[C@@H]1O`, the Ratio Ki amounted to 85 in assay [2] and 115 in assay [3].

Consider `CONc1nc(C#Cc2ccccc2)nc2c1ncn2[C@@H]1O[C@H](CO)[C@@H](O)[C@H]1O`, for which the Ki in assay [1] is 3.98 nM.

As for `CNC(=O)[C@H]1O[C@@H](n2cnc3c(NC)nc(C#Cc4ccc(F)cc4)nc32)[C@H](O)[C@@H]1O`, the values for the Ratio Ki in assay [2] and in assay [3] were 12400 and 29500, respectively.

Consider `CNC(=O)[C@H]1O[C@@H](n2cnc3c(N)nc(C#Cc4ccccc4)nc32)[C@H](O)[C@@H]1O`, for which the pKi in assay [4] is 5.41; in assay [5] it was 5.75; in assay [1] (read-out: Ki), 8.14.

As to `CNC(=O)[C@H]1O[C@@H](n2cnc3c(NC)nc(C#Cc4ccccn4)nc32)[C@H](O)[C@@H]1O`, the Ratio Ki in assay [2] was 21800; in assay [3] it was 60800.
